From article PMC9372051, “Biological evaluation, molecular modeling and dynamics simulation of phenanthrenes isolated from Bletilla striata as butyrylcholinesterase inhibitors” (Scientific Reports, 2022)
Read-outs that look alike come from different tables or passages of the source.

How the values were obtained:
AChE from electric eel = AChE from electric eel (Electrophorus electricus, UniProt O42275); assay: biochemical; conditions: read-out: % of inhibition at 25 μg/mL AChE
BChE from equine serum = BChE from equine serum (Equus caballus, UniProt P81908); assay: biochemical; assay type: biochemical; conditions: for inhibition at 25 µg/mL: read-out: % of inhibition at 25 μg/mL BChE; for BChE inhibition described in words: structure-activity discussion
Sequence of BChE from equine serum (P81908 whole entry): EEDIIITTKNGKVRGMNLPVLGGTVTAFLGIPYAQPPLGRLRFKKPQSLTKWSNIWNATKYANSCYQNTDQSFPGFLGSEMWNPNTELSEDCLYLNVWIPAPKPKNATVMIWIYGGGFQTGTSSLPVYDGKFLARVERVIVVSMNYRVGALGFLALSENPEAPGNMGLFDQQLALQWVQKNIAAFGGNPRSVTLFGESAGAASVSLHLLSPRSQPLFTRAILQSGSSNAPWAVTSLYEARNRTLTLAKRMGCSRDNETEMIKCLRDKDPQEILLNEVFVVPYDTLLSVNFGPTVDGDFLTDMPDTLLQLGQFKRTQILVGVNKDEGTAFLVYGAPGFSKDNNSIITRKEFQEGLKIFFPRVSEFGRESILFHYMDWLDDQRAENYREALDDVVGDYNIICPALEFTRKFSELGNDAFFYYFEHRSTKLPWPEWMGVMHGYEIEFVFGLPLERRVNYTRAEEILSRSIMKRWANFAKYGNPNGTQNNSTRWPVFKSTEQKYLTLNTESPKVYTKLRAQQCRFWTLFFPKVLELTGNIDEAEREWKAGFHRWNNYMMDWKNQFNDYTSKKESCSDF

BChE = BChE (Equus caballus, UniProt P81908); assay: Kinetic characterization of BChE inhibition (Lineweaver–Burk plots, secondary plots); assay type: biochemical, equine; conditions: for Mode of BChE inhibition: Lineweaver–Burk plots; for Ki: estimated by secondary plots of Lineweaver–Burk plots, substrate BTCI
Sequence of BChE (P81908 whole entry): as above
Method: […]. Five increasing concentrations of BTCI as a substrate in the presence of three different concentrations of compound were used in the kinetic measurement. The concentrations of the enzyme and DNTB used in the determination are 0.226 U/mL and 3 mM respectively. The inhibition constants (Ki) of the inhibitors were determined by the secondary plots which constructed using the slopes of the Lineweaver–Burk plots.

Sequence of AChE from electric eel (O42275 24-633): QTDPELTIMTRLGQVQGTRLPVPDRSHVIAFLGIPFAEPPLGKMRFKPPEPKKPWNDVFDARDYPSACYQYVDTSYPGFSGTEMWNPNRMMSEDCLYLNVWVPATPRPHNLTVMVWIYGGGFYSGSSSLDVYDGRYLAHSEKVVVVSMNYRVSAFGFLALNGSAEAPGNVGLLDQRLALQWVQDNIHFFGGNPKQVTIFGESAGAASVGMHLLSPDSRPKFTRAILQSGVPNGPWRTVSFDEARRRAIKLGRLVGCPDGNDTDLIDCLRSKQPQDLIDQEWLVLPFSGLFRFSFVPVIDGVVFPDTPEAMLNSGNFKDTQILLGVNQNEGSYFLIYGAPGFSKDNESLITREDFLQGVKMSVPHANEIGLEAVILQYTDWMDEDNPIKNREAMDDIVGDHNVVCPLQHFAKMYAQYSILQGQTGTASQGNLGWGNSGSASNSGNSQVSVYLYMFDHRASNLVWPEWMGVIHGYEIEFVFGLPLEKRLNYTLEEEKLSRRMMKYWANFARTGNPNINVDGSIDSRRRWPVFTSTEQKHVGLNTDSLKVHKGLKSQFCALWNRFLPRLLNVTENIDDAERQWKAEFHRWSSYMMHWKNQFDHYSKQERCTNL

Row | Structure (SMILES) | inhibition at 25 µg/mL (AChE from electric eel) | Selectivity ratio (BChE from equine serum) | IC50 (BChE from equine serum; mean ± SD of three experiments) | inhibition at 25 µg/mL (BChE from equine serum) | Mode of BChE inhibition (BChE) | Ki (BChE) | BChE inhibition described in words (BChE from equine serum) | inhibition at 25 µg/mL (BChE from equine serum; 25 μg/mL final concentration, mean ± SD of three experiments)
1 | COc1cc(Oc2c(O)cc(OC)c3c2ccc2cc(O)ccc23)cc2c1-c1ccc(O)cc1CC2 [Compound 16, blestrin C] | 4.9 ± 3.2% | > 4.3 | 12.1 ± 3.4 µM | 64.3 ± 2.4% |  |  |  | 
2 | COc1cc(O)c(Cc2ccc(O)cc2)c2ccc3cc(O)ccc3c12 [Compound 10, 1-[(4-hydroxyphenyl)methyl]-4-methoxy-2,7-phenanthrenediol] | 19.1 ± 3.8% | > 34.7 | 2.1 ± 0.3 µM | 96.6 ± 1.2% | non-competitive | 5.4 µM |  | 
3 | COc1cc(O)c2c(c1Cc1ccc(O)cc1)CCc1cc(O)ccc1-2 [Compound 9, shancidin] | 15.2 ± 3.6% | > 4.3 | 16.7 ± 2 µM | 72.8 ± 3.4% |  |  |  | 
4 | COc1c(O)c(Cc2ccc(O)cc2)c2ccc3cc(O)ccc3c2c1OC [Compound 13, bleformin B] | 9.9 ± 4.7% | > 4.0 | 16.7 ± 2.4 µM | 75.7 ± 1.1% |  |  |  | 
5 | COc1cc(O)c(Cc2ccc(O)cc2)c2ccc3c(Cc4ccc(O)cc4)c(O)ccc3c12 [Compound 12, 1,8-bis(4-hydroxybenzyl)-4-methoxyphenanthrene-2,7-diol] | 16.1 ± 5% | > 23.1 | 2.3 ± 0.4 µM | 95.4 ± 0.3% | non-competitive | 6.6 µM |  | 
6 | COc1cc([C@@H]2Oc3cc4c(cc3[C@H]2CO)-c2c(cc(O)cc2OC)CC4)ccc1O [Compound 18, bletilol D] | 5.7 ± 2.8% |  |  | 31.6 ± 2.8% |  |  |  | 
7 | COc1cc([C@@H]2Oc3cc(OC)c4c(c3[C@H]2Cc2c(O)cc(OC)c3c2CCc2cc(O)ccc2-3)CCc2cc(O)ccc2-4)ccc1O [Compound 20, Bletilol E] | 5.1 ± 4% |  |  | 8 ± 2.4% |  |  | weak inhibition potency | 
8 | COc1ccc2c3c1O[C@H]1C[C@@H](O)C=C[C@@]31CCN(C)C2 [Galantamine, reference compound] |  |  |  | 64.2 ± 0.6% |  |  |  | 
9 | COc1cc(Oc2c(O)cc(OC)c3c2CCc2cc(O)ccc2-3)cc2c1-c1ccc(O)cc1CC2 [Compound 15, blestrin A] | 8.4 ± 3.1% | > 2.9 | 17.9 ± 4.7 µM | 64 ± 2.6% |  |  |  | 
10 | COc1cc(O)cc2c1-c1ccc(Oc3c(O)cc(OC)c4c3ccc3cc(O)ccc34)cc1CC2 [Compound 14, blestrin D] | 6.8 ± 1.6% | > 6.8 | 8.1 ± 0.5 µM |  | mixed-type | 10.9 µM |  | 69 ± 2.5%
11 | COc1cc(O)c(Cc2ccc(O)cc2)c(CCc2cccc(O)c2)c1 [Compound 4, isoarundinin II] | 0.9 ± 0.8% |  |  | 39.3 ± 2.3% |  |  |  | 
12 | COc1c(Cc2ccc(O)cc2)c(O)c(Cc2ccc(O)cc2)c2c1-c1ccc(O)cc1CC2 [Compound 11, 2,7-dihydroxy-1,3-bi(p-hydroxybenzyl)-4-methoxy-9,10-dihydrophenanthrene] | 20.1 ± 3.5% | > 1.2 | 44.6 ± 4.1 µM | 53.1 ± 1.2% |  |  |  | 
13 | COc1c(Cc2ccc(O)cc2)c(O)cc2c1-c1ccc(O)cc1CC2 [Compound 7, 3-(4-hydroxybenzyl)-4-methoxy-9,10-dihydrophenanthrene-2,7-diol] | 9.6 ± 2.6% | > 2.1 | 34 ± 1.4 µM | 65.7 ± 0.7% |  |  |  | 
14 | COc1ccc2c(ccc3c(Cc4ccc(O)cc4)c(O)cc(OC)c32)c1O [Compound 6, 1-(p-hydroxybenzyl)-4,7-dimethoxyphenanthrene-2,8-diol] | 20.4 ± 4.5% | > 9.5 | 6.4 ± 0.2 µM | 85.2 ± 2.9% | mixed-type | 14 µM |  | 
15 | COc1cc(O)cc(/C=C\c2cccc(O)c2)c1 [Compound 21, pholidotol D] | 5.2 ± 3.2% |  |  | 29.1 ± 1.3% |  |  |  | 
16 | COc1cc(C2Oc3cc4c(c(OC)c3C2CO)-c2ccc(O)cc2CC4)ccc1O (stereo not shown) [Compound 19, 9-(4′-hydroxy-3′-methoxyphenyl)-10-(hydroxymethyl)-11-methoxy-5,6,9, 10-tetrahydrophenanthro[2,3-b] furan-3-ol] | 3.3 ± 1.8% | > 1.7 | 35.8 ± 9.2 µM | 61.2 ± 1.3% |  |  |  | 
17 | COc1cc(O)c(-c2c(O)cc(OC)c3c2CCc2cc(O)ccc2-3)c2c1-c1ccc(O)cc1CC2 [Compound 22, flavanthrin] | 13.3 ± 2.9% | > 1.2 | 42.2 ± 5.1 µM | 56.7 ± 2% |  |  | moderate efficacy | 
18 | COc1cc(C2COc3cc(OC)c4c(c3C2O)CCc2cc(O)ccc2-4)ccc1O (stereo not shown) [Compound 17, shanciol F] | 5.5 ± 1.8% |  |  | 21.8 ± 3.1% |  |  |  | 
19 | COc1cc(CCc2cccc(O)c2)cc(O)c1Cc1ccc(O)cc1 [Compound 5, 3,3′-dihydroxy-4-(4-hydroxybenzyl)-5-methoxybibenzyl] | 2.6 ± 2.8% |  |  | 22.6 ± 2.1% |  |  |  | 
20 | COc1c(O)cc2ccc3c(Cc4ccc(O)cc4)c(O)ccc3c2c1OC [Compound 8, bleformin A] | 18.5 ± 1.7% | > 13.1 | 5.2 ± 0.4 µM | 70 ± 1% | mixed-type | 4.7 µM |  | 
21 | COc1cccc(CCc2cc(OC)cc(O)c2Cc2ccc(O)cc2)c1 [Compound 1, gymconopin D] | 48.1 ± 6.3% | > 1.7 | 40.5 ± 5.6 µM | 66.2 ± 3.4% |  |  |  | 
22 | COc1cccc(CCc2cc(O)cc(OC)c2Cc2ccc(O)cc2)c1 [Compound 2, bulbocol] | 16.3 ± 3.8% | > 2.1 | 33.5 ± 3.7 µM | 67.7 ± 0.3% |  |  |  | 
23 | COc1cc(O)cc(CCc2cccc(O)c2)c1Cc1ccc(O)cc1 [Compound 3, 3′,5-dihydroxy-2-(4-hydroxybenzyl)-3-methoxybibenzyl] | 5 ± 1.5% |  | 80.3 ± 5.2 µM | 51.3 ± 2% |  |  |  | 
